The numbers were not newly measured in patent publication US11298425B2, “Delivery of a chemotherapy agent across the blood-brain barrier” (ROWLESBIOMED, LLC, priority 2018, dated 2022), which cites them from elsewhere.

The conditions of series [1]: mice.
The conditions of series [2]: rats.
For series [3] the following is noted: pigs.
For series [4] the following is noted: humans, measured in the tissues of human cadavers.

Structures are written as SMILES. Where two headings read alike, the source gives them in different places.

Consider `CCCCCc1cc(O)c2c(c1)OC(C)(C)[C@@H]1CCC(C)=C[C@@H]21` [THC, tetrahydrocannabinol], for which the brain-to-blood ratio in series [1] was 1.6; in series [2], 2.0; in series [3] it was 2.6; in series [4], 3.0.

Take `CCCc1cc(O)c2c(c1)OC(C)(C)[C@@H]1CCC(C)=C[C@@H]21` [THCV, tetrahydrocannabivarin]: the brain-to-blood ratio entry in series [1] is “even higher than THC”.
